In publication PMC9792776 (Frontiers in Pharmacology, 2022):
Read-outs that look alike come from different tables or passages of the source.

Tests used:
[1] = pKa; type: physicochemical
From the text: TABLE 1 Model development and model parameters. | column: Value

[2] = target: T1, CYP2C9 (Homo sapiens, UniProt P11712); test: CYP2C9 inhibition in human liver microsomes (diclofenac probe)
Procedure: Ki=IC50/1+S/Km (1) Where IC50 signifies the half-maximum inhibitory concentration; S, the concentration of P450 marker substrate; and K m , the Michaelis constant within the Michaelis-Menten equation, which is in turn used to characterize substrate-enzyme binding kinetics.
The Michaelis constant (K m ) of CYP2C9 incubated with diclofenac was obtained from reported data ([Lee et al., 2014]). Methods used to calculate the Ki of CYP2C19 and CYP2C9 were similar.

[3] = target: P-gp (Homo sapiens, UniProt P08183); test: P-gp inhibition (Ki calculated from IC50); type: in vitro ADME; settings: calculated with IC50, substrate concentration and substrate Km
[4] = tested on: CYP1A2; test: CYP1A2 mRNA induction in cultured human hepatocytes; type: cell-based; settings: in vitro studies
[5] = PBPK model parameters optimized or assumed (Simcyp minimal PBPK); set-up: species or system human
From the text: The first-order absorption model has different absorption rate constants (ka) and fraction available from dosage form (fa) to simulate absorption processes in fasting and fed states. […] Caco-2 (human colorectal adenocarcinoma) cells are used to model the intestinal epithelial barrier. The Simcyp (Version 19.0, Certara Inc., Sheffield, UK) minimal PBPK, which treats all organs other than the intestine and liver as a single compartment ([Rowland Yeo et al., 2010]), was selected, along with a single adjusting compartment (SAC) distribution model. The SAC is a nonphysiologic compartment that permits adjustment to the drug concentration profile in the systemic compartment ([Ke et al., 2016]).

[6] = target: T2, CYP3A4 (Homo sapiens, UniProt P08684); test: Clinical DDI study with itraconazole and rifampicin in healthy American (White) subjects; settings: for Cmax: plasma, oral, Cmax Obs.
Procedure: After a 3-day washout period, they were pretreated with 200 mg of oral itraconazole once daily for 4 days to inhibit CYP3A4 (Days 5–8). […] After a 3-day washout, subjects were pretreated with 600 mg of oral rifampicin once daily for 7 days to induce CYP3A4 (Days 5–11). […] Blood samples were collected immediately before and after drug administration at 0.5, 1, 2, 4, 6, 8, 12, 24, 48, 72, and 96 h.

[7] = target: T3, OCT2 (Homo sapiens, UniProt O15244); test: Transporter substrate/inhibitor assessment, OCT2; type: in vitro ADME
T3 sequence (O15244 1-555): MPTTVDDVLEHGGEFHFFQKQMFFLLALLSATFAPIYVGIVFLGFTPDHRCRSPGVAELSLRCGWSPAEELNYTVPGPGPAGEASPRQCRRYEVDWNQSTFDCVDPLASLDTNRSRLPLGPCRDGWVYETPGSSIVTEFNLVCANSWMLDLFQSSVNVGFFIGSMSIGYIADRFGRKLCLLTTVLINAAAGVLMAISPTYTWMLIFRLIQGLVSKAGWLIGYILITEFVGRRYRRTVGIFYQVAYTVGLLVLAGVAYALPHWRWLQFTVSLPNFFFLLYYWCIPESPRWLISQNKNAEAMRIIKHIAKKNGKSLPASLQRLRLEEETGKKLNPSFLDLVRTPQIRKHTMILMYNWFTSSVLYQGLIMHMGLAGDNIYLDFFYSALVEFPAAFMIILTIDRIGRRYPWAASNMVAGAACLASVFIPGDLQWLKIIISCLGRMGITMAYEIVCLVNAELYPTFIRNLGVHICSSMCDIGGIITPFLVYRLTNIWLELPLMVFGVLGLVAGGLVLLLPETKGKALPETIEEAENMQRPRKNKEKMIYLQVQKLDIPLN

[8] = target: MATE2K (Homo sapiens, UniProt Q86VL8); test: Transporter substrate/inhibitor assessment, MATE2K; type: in vitro ADME
[9] = target: T2, CYP3A4; settings: recombinant enzyme
[10] = tested on: T315I-mutated CML; settings: 40 mg QOD, 28-day cycles over 24 months, ref Jiang et al., 2022, cited from earlier work
[11] = tested on: imatinib-resistant and imatinib-sensitive gastrointestinal stromal tumor cell lines; set-up: method as in Liu et al., 2019; settings: imatinib-resistant and imatinib-sensitive GIST cell lines; ref Liu et al., 2019; cited from earlier work
[12] = target: T1, CYP2C9; test: Intrinsic clearance in human recombinant CYP2C9
[13] = target: T2, CYP3A4; test: Intrinsic clearance in human recombinant CYP3A4
[14] = Fasting, optimized based on observed data
[15] = Fed, optimized based on observed data
[16] = optimized based on observed data

T2 sequence (P08684 whole entry): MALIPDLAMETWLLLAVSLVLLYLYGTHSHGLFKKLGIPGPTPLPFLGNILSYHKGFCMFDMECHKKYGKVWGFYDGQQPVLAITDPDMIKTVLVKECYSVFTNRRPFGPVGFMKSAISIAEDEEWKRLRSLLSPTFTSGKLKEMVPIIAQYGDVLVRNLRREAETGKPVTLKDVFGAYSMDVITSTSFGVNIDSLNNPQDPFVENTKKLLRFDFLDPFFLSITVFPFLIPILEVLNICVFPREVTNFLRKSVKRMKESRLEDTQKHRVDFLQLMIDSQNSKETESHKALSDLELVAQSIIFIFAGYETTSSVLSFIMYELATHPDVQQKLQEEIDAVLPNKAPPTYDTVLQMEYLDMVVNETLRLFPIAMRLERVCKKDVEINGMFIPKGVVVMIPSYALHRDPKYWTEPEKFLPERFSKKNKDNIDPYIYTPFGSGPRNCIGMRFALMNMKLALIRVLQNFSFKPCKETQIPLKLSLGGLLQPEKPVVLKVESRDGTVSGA
T1 sequence (P11712 whole entry): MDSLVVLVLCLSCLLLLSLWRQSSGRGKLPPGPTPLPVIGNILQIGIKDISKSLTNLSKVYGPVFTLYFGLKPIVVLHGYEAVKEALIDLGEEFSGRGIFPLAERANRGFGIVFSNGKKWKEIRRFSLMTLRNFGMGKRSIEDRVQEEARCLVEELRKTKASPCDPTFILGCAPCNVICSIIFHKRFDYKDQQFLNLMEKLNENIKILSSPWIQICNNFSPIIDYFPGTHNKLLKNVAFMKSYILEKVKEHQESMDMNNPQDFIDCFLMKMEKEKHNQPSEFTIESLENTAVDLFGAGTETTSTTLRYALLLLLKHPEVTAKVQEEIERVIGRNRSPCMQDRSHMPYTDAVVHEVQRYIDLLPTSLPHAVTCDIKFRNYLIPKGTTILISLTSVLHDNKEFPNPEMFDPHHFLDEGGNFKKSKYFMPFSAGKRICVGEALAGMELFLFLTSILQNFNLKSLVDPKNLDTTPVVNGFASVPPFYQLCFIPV
P-gp, sequence (P08183 whole entry): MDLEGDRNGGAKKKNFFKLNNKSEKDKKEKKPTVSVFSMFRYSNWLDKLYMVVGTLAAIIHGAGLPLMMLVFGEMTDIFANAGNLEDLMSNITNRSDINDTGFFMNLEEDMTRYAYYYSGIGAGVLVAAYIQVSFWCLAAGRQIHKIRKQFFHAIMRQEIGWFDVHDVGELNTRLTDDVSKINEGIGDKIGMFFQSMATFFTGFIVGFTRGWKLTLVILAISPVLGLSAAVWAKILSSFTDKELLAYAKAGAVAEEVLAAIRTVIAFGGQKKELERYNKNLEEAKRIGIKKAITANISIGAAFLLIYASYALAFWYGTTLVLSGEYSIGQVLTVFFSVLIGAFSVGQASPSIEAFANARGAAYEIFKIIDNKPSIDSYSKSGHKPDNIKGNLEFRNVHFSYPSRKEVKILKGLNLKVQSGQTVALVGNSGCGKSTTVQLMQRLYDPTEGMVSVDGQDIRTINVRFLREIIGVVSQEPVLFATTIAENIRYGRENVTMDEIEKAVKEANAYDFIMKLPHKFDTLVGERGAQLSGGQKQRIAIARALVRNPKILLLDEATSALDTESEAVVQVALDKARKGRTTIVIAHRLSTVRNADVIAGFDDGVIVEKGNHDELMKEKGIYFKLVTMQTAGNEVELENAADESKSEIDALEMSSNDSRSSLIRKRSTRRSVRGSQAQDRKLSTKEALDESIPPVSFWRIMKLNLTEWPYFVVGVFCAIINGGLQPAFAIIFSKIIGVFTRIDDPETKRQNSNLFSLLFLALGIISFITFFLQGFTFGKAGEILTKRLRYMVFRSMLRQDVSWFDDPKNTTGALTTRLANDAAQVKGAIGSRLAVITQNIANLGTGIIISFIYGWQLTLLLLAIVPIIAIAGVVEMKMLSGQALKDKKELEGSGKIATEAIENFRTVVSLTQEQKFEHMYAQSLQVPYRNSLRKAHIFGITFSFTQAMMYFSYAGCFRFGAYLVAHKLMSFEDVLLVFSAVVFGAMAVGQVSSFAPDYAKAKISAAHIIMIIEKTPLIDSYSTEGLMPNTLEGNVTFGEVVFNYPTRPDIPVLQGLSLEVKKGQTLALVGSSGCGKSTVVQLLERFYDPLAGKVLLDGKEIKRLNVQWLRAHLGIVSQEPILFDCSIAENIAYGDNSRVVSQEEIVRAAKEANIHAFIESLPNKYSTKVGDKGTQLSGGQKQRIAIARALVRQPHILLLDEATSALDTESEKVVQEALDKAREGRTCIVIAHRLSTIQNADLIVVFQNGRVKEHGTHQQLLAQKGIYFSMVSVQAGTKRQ
MATE2K, sequence (Q86VL8 1-566 isoform Q86VL8-3, species assumed): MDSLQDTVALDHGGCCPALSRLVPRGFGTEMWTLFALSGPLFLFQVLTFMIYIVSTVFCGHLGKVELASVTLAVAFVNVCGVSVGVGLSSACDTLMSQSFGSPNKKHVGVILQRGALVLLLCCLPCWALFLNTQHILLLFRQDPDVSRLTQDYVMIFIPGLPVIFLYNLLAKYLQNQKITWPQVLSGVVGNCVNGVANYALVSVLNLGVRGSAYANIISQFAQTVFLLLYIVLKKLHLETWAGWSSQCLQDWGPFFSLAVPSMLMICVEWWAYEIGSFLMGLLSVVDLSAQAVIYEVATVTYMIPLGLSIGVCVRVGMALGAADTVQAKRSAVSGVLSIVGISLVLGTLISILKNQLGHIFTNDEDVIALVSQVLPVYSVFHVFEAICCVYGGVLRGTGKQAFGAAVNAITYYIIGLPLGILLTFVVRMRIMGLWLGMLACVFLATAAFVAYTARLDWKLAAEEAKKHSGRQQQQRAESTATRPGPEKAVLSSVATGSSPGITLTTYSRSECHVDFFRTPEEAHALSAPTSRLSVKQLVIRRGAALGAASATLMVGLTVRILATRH

Cc1ccc(C(=O)Nc2ccc(CN3CCN(C)CC3)c(C(F)(F)F)c2)cc1C#Cc1cnc2[nH]ncc2c1 [olverembatinib, Olverembatinib]
pKa ([1]; read-out: pKa 1): 2.9
pKa ([1]; read-out: pKa 2): 10.9
Ki [2]: 1140 nM
CYP2C9 inhibition, strength ([2]; microsomes): weak
Ki [3]: 2230 nM
CYP1A2 induction, strength [4]: weak
fa [5, 14]: 0.574 (Fasting)
ka [5, 14]: 0.213 (Fasting) 1/h
fa [5, 15]: 0.8 (Fed)
ka [5, 15]: 0.136 (Fed) 1/h
fraction unbound ([5]; human, microsomal incubation, assumed equal to fu,p, read-out: fu,mic/fu,inc): 0.0005
Kp ([5]; human, optimized based on observed data, read-out: Kp Scalar): 6.01
ISEF CYP2C9 ([5]; optimized based on fmCYP2C9): 1.2938
ISEF CYP3A4 ([5]; optimized based on fmCYP3A4): 0.7761
SAC kin [5, 16]: 0.0471 h⁻¹
SAC kout [5, 16]: 0.0177 h⁻¹
Vsac [5, 16]: 38.02 L/kg
AUC Obs. ([6]; White healthy volunteers, fed, 20 mg SD, olverembatinib alone): 125 h?ng/mL
AUC Obs. ([6]; White healthy volunteers, fed, 40 mg SD, olverembatinib alone): 302 h?ng/mL
AUC Obs. ([6]; coadministration with itraconazole, healthy White volunteers): 330 h?ng/mL
AUC Obs. ([6]; coadministration with rifampicin, healthy White volunteers): 73.0 h?ng/mL
AUC decrease after rifampicin administration ([6]; human, in vivo): 76%
AUC increase after itraconazole treatment ([6]; human, in vivo, 200 mg): 163%
Cmax ([6]; human, 20 mg, White healthy volunteers, fed, 20 mg SD, olverembatinib alone): 5.26 ng/mL
Cmax ([6]; human, 40 mg, White healthy volunteers, fed, 40 mg SD, olverembatinib alone): 12.7 ng/mL
Cmax ([6]; human, coadministration with itraconazole, healthy White volunteers): 9.14 ng/mL
Cmax ([6]; human, coadministration with rifampicin, healthy White volunteers): 4.54 ng/mL
substrate or inhibitor of OCT2 [7]: neither a substrate nor inhibitor
substrate or inhibitor of MATE2K [8]: neither a substrate nor inhibitor
CLint CYP3A4 [9]: 0.2 µL/min/pmol CYP
major hematologic response (MaHR), patients ([10]; CML-AP, n = 37 without MaHR at baseline): 78.4%
major cytogenetic response (MCyR), patients ([10]; CML-CP, n = 121 without MCyR at baseline): 79.3%
antiproliferative activity compared with ponatinib [11]: equivalent or more potent antiproliferative activity
CLint CYP2C9 [12]: 0.022 µL/min/pmol CYP
CLint CYP3A4 [13]: 0.200 µL/min/pmol CYP
